Data set [1] is described as follows: Ussing chamber permeation study through rabbit cornea. The conditions noted are these: 37° C., 0.5 cm2 rabbit cornea. The data set is classed as in vitro ADME. The protocol:
Ussing chambers were used for the permeation study each day of experiment.
3 mL of solution were placed in donor side of Ussing chambers and 3 mL of Ringer solution were in receiver side. Freshly removed rabbit corneal tissue were placed between the two half chambers.
Temperature was maintained at 37° C. during all the flux study and oxygenation was provided by a continuous perfusion of carbogen (oxygen/carbonic acid) (95/5),
Rabbits were euthanized and the 6 corneas were removed and used immediately. 500 μL of receptor side liquid were removed from Ussing chambers and replaced by fresh buffer. The samples were analyzed immediately (less than 10 hours after collection).
100 μL of donor side liquid were removed from Ussing chambers and not replaced. The samples were diluted immediately (less than 1 hour) after collection and analyzed less than 10 hours after dilution. Analysis was performed on HPLC (Stationary phase: C18 (Particle size: 3 μm Length: 5 cm, using a gradient from 5 to 95% ACN/water (0.1% formic acid)).
At the end of the sampling period, all corneas were discarded.

The test system of data set [2] is choroidal neovascularisation. Nature of the data set: Rat model of laser-induced choroidal neovascularization (CNV). It is filed as in vivo, rat (Brown Norway). The conditions noted are these: topical solution 6 mg/mL (10 μL) two times daily, 14 days after laser induction. The protocol: We investigated the efficacy of topical administration of compound 25 of the invention in reducing choroidal neovascularisation in the rat (Brown Norway, 8 weeks of age).
On day 1, CNV was performed by laser photocoagulation-induced rupture of Bruch's membrane as previously described (Edelman and Casto 2000). An Argon green laser irradiation was delivered through the slit lamp for induce photocoagulation. In each eye, 6-7 focal laser spots were applied concentrically approximately two optic discs from the center. Immediately afterwards, rats were treated with topical solution 6 mg/mL (10 μL) two times daily until sacrifice. 14 days after laser induction of CNV blood vessels were visualized on retinal pigment epithelium-choroid-sclera flat-mount by immunostaining with isolectin B4.
Assessment of CNV response to treatment was performed after capture and area measurement of immunostained vessels representing CNV at the site of laser burn.
Pixel area of vascular budding was traced by 2 trained masked investigators and converted to μm^2.

Data set [3] concerns the target h Src (Homo sapiens, UniProt P12931). The experiment in a line: LC3000 Src assay (off-chip incubation mobility-shift kinase assay, Caliper LabChip). It is filed as biochemical. The conditions noted are these: ATP at KM apparent. As for the experimental part:
The screening and profiling experiments described here were performed using Caliper Life Sciences' proprietary LabChip™ technology. Caliper LC3000 and EZ Reader II instruments are widely used throughout the drug discovery process for assay development, primary screening, selectivity screening, generation of Structure-Activity Relationships (SARs) and Mechanism of Action (MOA) studies. The LabChip™ technology is particularly well suited for enzymatic ‘targets’ such as kinases, proteases, phosphatases, histone deacetylases (HDAC), phosphodiesterases (PDE), and acyl-transferases. The key benefit of the technology is the separation and direct measurement of substrates and products, which allows for higher signal-to-noise ratios and fewer false positive/negative results. This direct measurement also allows for the identification and elimination of enzymatic activities that are not associated with the kinase reaction of interest.
The off-chip incubation mobility-shift kinase assay uses a microfluidic chip to measure the conversion of a fluorescent peptide substrate to a phosphorylated product. The reaction mixture, from a microtiter plate well, is introduced through a capillary sipper onto the chip, where the nonphosphorylated substrate and phosphorylated product are separated by electrophoresis and detected via laser-induced fluorescence. […] The phosphorylated product migrates through the chip faster than the non-phosphorylated substrate, and signals from the two forms of the peptide appear as distinct peaks. Caliper's data analysis software (HTSWA) determines peak heights, from which the ratio of product to the peak sum P/(P+S) and percent (%) conversion is calculated. This value is used to compare compound wells to control wells present on the plate, and thereby determine the % inhibition values for the compound. The formula used to calculate % inhibition is as follows, where C100% is the average % conversion of the 100% activity wells and C0% is the average % conversion of the 0% activity wells:
(1-(%conversionofsample—C0%)/(C100%−C0%))*100
Compounds were dissolved in 100% DMSO and diluted to 25× the final desired screening concentration. Serial dilutions were performed to obtain the concentrations specified for particular studies. One μl of each concentration was transferred, in duplicate, to a 384-well Greiner microtiter plate. Generally, 12 μL of enzyme buffer containing purified kinase (various suppliers), 100 mM HEPES, pH 7.5, 1 mM DTT (Calbiochem, 2333153), 10 mM MgCl2 (Sigma, M-1028) or 10 mM MnCl2 (Sigma, M-1787) (assay specific), and 0.002% Brij-35 (Sigma, B4184) was added to each well. Compound and enzyme were allowed to pre-incubate for 15 minutes. 12 μL of peptide/ATP buffer containing 100 mM HEPES, pH 7.5, 1.5 μM fluorescein-labeled peptide (specific to kinase of interest), ATP (at KM apparent, Sigma, A9187), and 0.002% Brij-35 was then added to each well to initiate the reaction. Generally, reactions were incubated for 1-1.5 hours at room temperature to obtain adequate (15-40%) conversion of peptide to phosphorylated product in the linear range of the reaction. Reactions were terminated with the addition of 45 μL of Stop Buffer (containing 20 mM EDTA). Plates were then read on the LabChip 3000 using a 12-sipper LabChip. % conversion values and % inhibition values were obtained as described and IC50 curves of compounds were generated using Graphpad Prism Version 4 or 5.01. A nonlinear curve fit using the sigmoidal dose response—variable slope fit was used to graph IC50 curves and determine IC50 values and hillslopes.

For data set [4], the target named is Src/Lyn (h) (Homo sapiens, UniProt P12931). The experiment in a line: In vitro potency Src/Lyn (h), Table 2. The data set is classed as biochemical.
Chain of Src/Lyn (h) (P12931 whole entry): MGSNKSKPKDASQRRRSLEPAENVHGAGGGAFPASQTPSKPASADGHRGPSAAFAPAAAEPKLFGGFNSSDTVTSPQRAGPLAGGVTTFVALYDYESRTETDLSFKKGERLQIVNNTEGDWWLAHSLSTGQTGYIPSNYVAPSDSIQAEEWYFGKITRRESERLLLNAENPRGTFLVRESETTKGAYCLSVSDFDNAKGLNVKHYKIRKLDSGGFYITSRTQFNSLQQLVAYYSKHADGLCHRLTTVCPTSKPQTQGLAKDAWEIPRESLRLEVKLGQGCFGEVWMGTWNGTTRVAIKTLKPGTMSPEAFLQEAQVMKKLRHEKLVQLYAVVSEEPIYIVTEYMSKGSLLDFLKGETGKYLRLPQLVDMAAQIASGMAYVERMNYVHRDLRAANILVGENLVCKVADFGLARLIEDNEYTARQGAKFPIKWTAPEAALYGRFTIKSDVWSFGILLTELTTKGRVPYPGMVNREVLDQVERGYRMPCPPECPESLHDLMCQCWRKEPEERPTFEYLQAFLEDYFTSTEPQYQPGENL
Data set [5] can be described thus: Colour of the compound. The data set is classed as physicochemical. The conditions noted are these: powder.
Data set [6] is described as follows: Solubility in HPbCD 7% pH 5. The data set is classed as physicochemical. The conditions noted are these: HPbCD 7% solution, aqueous with cosolvent or surfactant or cyclodextrin, read-out: Solubility HPbCD 7% pH 5 (mg/ml) measured.

Converted amounts (≈) assume the structure as drawn.

Chain of h Src (P12931 whole entry): as above

By IC50 is commonly meant the concentration needed to halve the response being measured. Turning to `Oc1ccc(Cl)c(-c2ccc3nc(Nc4ccc(OCCN5CCCC5)nc4)nn3c2)c1` [Compound 25, 4-Chloro-3-{2-[6-(2-pyrrolidin-1-yl-ethoxy)-pyridin-3-ylamino]-[1,2,4]triazolo[1,5-a]pyridin-6-yl}-phenol], in data set [1], the “Flux between 2 and 4 hours through 0.5 cm2 of rabbit cornea (μg/h/cm2)” value is 14 μg/h/cm2. Further, in data set [2], the “reduction of CNV compared to control” value is 15%. Also, the half-inhibitory concentration (IC50) in data set [3] and in data set [4] was 23 nM each time. For the same compound, in data set [5], the Colour result is recorded as “White”. In addition, the solubility in data set [6] was 6.5 mg/mL (≈ 14.4 mM).

For `OCc1cc(Nc2nc3ccc(-c4cc(O)ccc4Cl)cn3n2)ccn1` [compound 13, 4-Chloro-3-[2-(2-hydroxymethyl-pyridin-4-ylamino)-[1,2,4]triazolo[1,5-a]pyridin-6-yl]-phenol], the “Flux between 2 and 4 hours through 0.5 cm2 of rabbit cornea (μg/h/cm2)” value in data set [1] is reported as 13 μg/h/cm2. Moreover, the IC50 in data set [3] and in data set [4] was 27 nM throughout. In data set [5], the Colour entry is reported as “White”. The solubility in data set [6] turned out to be 2.38 mg/mL (≈ 6.47 mM).

In the case of `OCCN1CCN(c2ccc(Nc3nc4ccc(-c5cc(O)ccc5Cl)cn4n3)cn2)CC1` [compound 10, 4-Chloro-3-(2-{6-[4-(2-hydroxy-ethyl)-piperazin-1-yl]-pyridin-3-ylamino}-[1,2,4]triazolo[1,5-a]pyridin-6-yl)-phenol], the “Flux between 2 and 4 hours through 0.5 cm2 of rabbit cornea (μg/h/cm2)” value in data set [1] worked out at 30 μg/h/cm2. The IC50 in data set [3] and in data set [4] was 14 nM in each case. In data set [5], the Colour result is “White”. For the same compound, the solubility in data set [6] came out at 5.69 mg/mL (≈ 12.2 mM).

These data come from patent US20130123271A1, “HETEROCYCLIC COMPOUNDS, THEIR PREPARATION AND THERAPEUTIC APPLICATION” (FOVEA PHARMACEUTICALS, priority 2010, published 2013).
